Assay results: ChEMBL document CHEMBL1146254, “Identification of Sansalvamide a analog potent against pancreatic cancer cell lines” (Bioorg Med Chem Lett, 2007)
pIC50: −log10 of the molar value. Where a SMILES comes first, the peptide text is derived from it. [ ]: non-standard residue; d: D form. Cha = N[C@@H](CC1CCCCC1)C(=O)O; NMeL = CN[C@@H](CC(C)C)C(=O)O; dNMeL = CN[C@H](CC(C)C)C(=O)O; dNMeV = CN[C@@H](C(=O)O)C(C)C; dAbu = CC[C@@H](N)C(=O)O

How the values were obtained:
Settings in all cases: Homo sapiens
[1] = Cytotoxicity against PL45 cells at 5 uM by [3H]thymidine inhibition assay; format: functional, cell-based
BXPC-3 = test: Cytotoxicity against BxPC3 cells at 5 uM by [3H]thymidine inhibition assay; format: functional, cell-based
[2] = Cytotoxicity against WS1 cells; format: cell-based

SMILES	inhibition at 5 µM [1]	inhibition at 5 µM (BXPC-3)	pIC50 [1]	pIC50 [2]	pIC50 (BXPC-3)
CC(C)C[C@@H]1NC(=O)[C@H](Cc2ccccc2)NC(=O)[C@H](CC(C)C)NC(=O)[C@@H](C(C)C)N(C)C(=O)[C@H](CC(C)C)NC1=O (cyclo(FLL[dNMeV]L))	29%	34%			
CC(C)C[C@@H]1NC(=O)[C@H](C(C)C)NC(=O)[C@H](CC(C)C)NC(=O)[C@@H](CC(C)C)NC(=O)[C@H](Cc2ccccc2)NC1=O (cyclo(F[dL]LVL))	73%	29%			
CC(C)C[C@@H]1NC(=O)[C@@H](C(C)C)NC(=O)[C@H](CC(C)C)NC(=O)[C@H](CC(C)C)N(C)C(=O)[C@H](Cc2ccccc2)NC1=O (cyclo(F[NMeL]L[dV]L))	26%	2%			
CC(C)C[C@@H]1NC(=O)[C@H](C(C)C)NC(=O)[C@H](CC(C)C)NC(=O)[C@@H](CC(C)C)N(C)C(=O)[C@H](Cc2ccccc2)NC1=O (cyclo([dNMeL]LVLF))	52%	51%	5.46	3.70	5.42
CC(C)C[C@@H]1NC(=O)[C@H](Cc2ccccc2)NC(=O)[C@@H](CC(C)C)N(C)C(=O)[C@H](CC(C)C)NC(=O)[C@H](CC(C)C)NC1=O	5%	2%			
CC(C)C[C@@H]1NC(=O)[C@H](CC(C)C)NC(=O)[C@H](CC(C)C)NC(=O)[C@@H](Cc2ccccc2)NC(=O)[C@H](CC(C)C)NC1=O	48%	64%	5.30	3.70	5.70
CC(C)C[C@@H]1NC(=O)[C@H](Cc2ccccc2)NC(=O)[C@H](CC(C)C)NC(=O)[C@H](C(C)C)NC(=O)[C@@H](CC(C)C)NC1=O (cyclo(FL[dL]VL))	24%	74%			
CC(C)C[C@@H]1NC(=O)[C@H](CC(C)C)NC(=O)[C@H](CC(C)C)NC(=O)[C@@H](Cc2ccc(O)cc2)NC(=O)[C@H](CC(C)C)NC1=O	46%	33%			
CC(C)C[C@@H]1NC(=O)[C@H](Cc2ccccc2)NC(=O)[C@H](CC(C)C)NC(=O)[C@@H](C(C)C)N(C)C(=O)[C@H](CC2CCCCC2)NC1=O (cyclo([Cha][dNMeV]LFL))	45%	52%			
CC(C)C[C@@H]1NC(=O)[C@H](CC(C)C)NC(=O)[C@@H](Cc2ccccc2)NC(=O)[C@@H](CC(C)C)NC(=O)[C@@H](C(C)C)NC1=O (cyclo(LL[dV][dL][dF]))	67%	34%			
CC(C)C[C@@H]1NC(=O)[C@@H](CC(C)C)NC(=O)[C@H](Cc2ccccc2)NC(=O)[C@H](CC(C)C)NC(=O)[C@@H](C(C)C)NC1=O (cyclo(F[dL]L[dV]L))	32%	13%			
CC[C@H]1NC(=O)[C@H](CC(C)C)NC(=O)[C@H](CC(C)C)NC(=O)[C@H](Cc2ccccc2)NC(=O)[C@H](CC(C)C)NC1=O (cyclo(FLL[dAbu]L))	12%	17%			
CC(C)C[C@@H]1NC(=O)[C@H](Cc2ccccc2)NC(=O)[C@H](CC(C)C)N(C)C(=O)[C@H](CC(C)C)NC(=O)[C@H](CC(C)C)NC1=O	27%	46%			
CC(C)C[C@@H]1NC(=O)[C@H](C(C)C)NC(=O)[C@@H](CC(C)C)NC(=O)[C@@H](CC(C)C)NC(=O)[C@H](Cc2ccccc2)NC1=O (cyclo(F[dL][dL]VL))	51%	78%	5.30	3.70	5.85
CC(C)C[C@@H]1NC(=O)[C@H](Cc2ccccc2)NC(=O)[C@H](CC(C)C)NC(=O)[C@H](CC(C)C)NC(=O)[C@H](CC(C)C)NC1=O	25%	42%	4.15	3.70	4.60
CC(C)C[C@@H]1NC(=O)[C@H](CC(C)C)NC(=O)[C@H](Cc2ccccc2)N(C)C(=O)[C@H](CC(C)C)NC(=O)[C@H](CC(C)C)NC1=O	44%	62%	5.30	3.70	5.70
CC(C)C[C@@H]1NC(=O)[C@H](C(C)C)NC(=O)[C@H](CC(C)C)NC(=O)[C@H](CC(C)C)N(C)C(=O)[C@H](Cc2ccccc2)NC1=O (cyclo(F[NMeL]LVL))	55%	59%	5.52	3.70	5.70
CC(C)C[C@@H]1NC(=O)[C@H](Cc2ccccc2)NC(=O)[C@H](CC(C)C)NC(=O)[C@@H](C(C)C)NC(=O)[C@H](CCCCN)NC1=O (cyclo(FLK[dV]L))	20%	16%			
CC(C)C[C@@H]1NC(=O)[C@H](CC(C)C)NC(=O)[C@H](Cc2ccccc2)NC(=O)[C@@H](CC(C)C)NC(=O)[C@H](CC(C)C)NC1=O	41%	34%			
CC(C)C[C@@H]1NC(=O)[C@H](C(C)C)NC(=O)[C@H](CC(C)C)N(C)C(=O)[C@H](CC(C)C)NC(=O)[C@H](Cc2ccccc2)NC1=O (cyclo(FL[NMeL]VL))	45%	2%			
CC(C)C[C@@H]1NC(=O)[C@H](CC(C)C)NC(=O)[C@H](Cc2ccccc2)NC(=O)[C@@H](Cc2ccccc2)NC(=O)[C@H](CC(C)C)NC1=O	45%	21%			
CC(C)C[C@@H]1NC(=O)[C@@H](C(C)C)N(C)C(=O)[C@H](CC(C)C)NC(=O)[C@@H](CC(C)C)NC(=O)[C@H](Cc2ccccc2)NC1=O (cyclo(F[dL]L[dNMeV]L))	21%	35%			
CC(C)C[C@@H]1NC(=O)[C@H](CC(C)C)NC(=O)[C@H](CC(C)C)NC(=O)[C@@H](Cc2c[nH]c3ccccc23)NC(=O)[C@H](CC(C)C)NC1=O	18%	30%			
CC(C)C[C@@H]1NC(=O)[C@H](Cc2ccccc2)NC(=O)[C@H](CC(C)C)NC(=O)[C@@H](Cc2ccccc2)NC(=O)[C@H](CC(C)C)NC1=O (cyclo(FLL[dF]L))	33%	8%			
CC(C)C[C@@H]1NC(=O)[C@H](C(C)C)NC(=O)[C@H](CC(C)C)N(C)C(=O)[C@@H](CC(C)C)NC(=O)[C@H](Cc2ccccc2)NC1=O (cyclo(F[dL][NMeL]VL))	25%	71%			
CC(C)C[C@@H]1NC(=O)[C@H](Cc2ccccc2)NC(=O)[C@H](CC(C)C)NC(=O)[C@@H](C(C)C)NC(=O)[C@H](CCCCNC(=O)Cc2ccccc2)NC1=O	29%	29%			
CC(C)C[C@@H]1NC(=O)[C@H](Cc2ccccc2)NC(=O)[C@H](CC(C)C)NC(=O)[C@@H](CO)NC(=O)[C@H](CC(C)C)NC1=O (cyclo(FLL[dS]L))	25%	22%			
CC(C)C[C@@H]1NC(=O)[C@H](Cc2ccccc2)NC(=O)[C@@H](CC(C)C)NC(=O)[C@@H](C(C)C)NC(=O)[C@H](CC(C)C)NC1=O (cyclo(FLL[dV][dL]))	41%	16%			
CC(C)C[C@@H]1NC(=O)[C@H](Cc2ccccc2)NC(=O)[C@H](CC(C)C)NC(=O)[C@@H](C(C)C)NC(=O)[C@H](CC(C)C)NC1=O (cyclo(FLL[dV]L))	74%	50%	5.85	4.70	5.30
CC(C)C[C@@H]1NC(=O)[C@H](CC(C)C)NC(=O)[C@H](Cc2ccccc2)NC(=O)[C@@H](CO)NC(=O)[C@H](CC(C)C)NC1=O	32%	25%			
